Entries after “also recorded” stand apart in the source; their conditions may differ. Where two headings read alike, the source gives them in different places. Residues, ends and D or L forms follow the SMILES beside them. *: point of attachment. Cbz = O=C(OCc1ccccc1)*
Tests used:
[1] = test system: TCR-stimulated human CD4+ T cells; experiment: 3H-leucine uptake assay; type: cell-based; settings: BCH 50 mM, JPH203 10 μM, LβhL 400 mg/L
Description: After the culture medium was removed, the cells were cultured in HBSS for 10 minutes. ^3H-leucine or ^3H-methionine (Perkin Elmer, Waltham, MA) uptake assays were initiated by culturing cells for 15 min in HBSS with 0.5-1 μCi. Cells were separated with 1 M NaOH after three washes with ice-cold HBSS. Radioactivity was measured using a beta scintillation counter MicroBeta® (Perkin Elmer).

HIF-1α [2] = experiment: HIF-1α immunoblot in TCR-stimulated CD4+ memory T cells; type: cell-based, human; settings: for HIF-1α expression reduced by Bi2 (effect of added substance): Bi2 plus HMB 0.4 mM, CoCl2, VH298 or MG132; for HIF-1α protein expression: TCR-stimulated CD4+ memory T cells, Bi2 10 μM, CoCl2 100 μM, VH298 100 μM, MG132 5 μM
Description: (§1) Cells were cultured in radioimmunoprecipitation assay (RIPA) buffer (150 mM NaCl, 10 mM Na2HPO4, pH 7.2, 1% Nonidet P-40, 0.5% deoxycholate) containing phenylmethylsulfonyl fluoride (PMSF; Millipore Sigma, Burlington, MA), EDTA, protease and phosphatase inhibitor cocktail (Thermo Fisher Scientific) to extract total protein. Proteins were separated on 8-10% SDS-polyacrylamide gels and blotted onto polyvinylidene difluoride (PVDF) membranes (Bio-Rad, Hercules, CA) followed by 5% BSA in Tris buffered saline (TBS) with 0.1% Tween 20 and blocked for 1 hour. Membranes were cultured overnight with anti-human SLC7A5, anti-BCAT, anti-phospho-p70S6K, anti-p70S6K, anti-HIF-1α (all provided by Cell Signaling Technology, Danvers, MA) primary antibodies at 4° C., followed by culture with HRP-conjugated secondary antibodies for 1 hour at room temperature. Membranes were developed using SuperSignal West Femto Maximum Sensitivity Substrate or SuperSignal West Pico PLUS Chemiluminescent Substrate system (Thermo Fisher Scientific).

[3] = test system: TCR-stimulated human CD4+ memory T cells; experiment: Cytokine ELISA of culture supernatants, CD4+ memory T cells; type: cell-based; settings: for IFN-γ production by CD4+ memory T cells / IL-17A production by CD4+ memory T cells: TCR stimulation 3 days, Bi2 10 μM, JPH203 10 μM, LβhL 400 mg/L; for IFN-γ production by CD4+ memory T cells: HMB 0.4 mM, VH298 100 nM; for IL-17A production by CD4+ memory T cells: statin 10 μM
Description: The study protocol was reviewed and approved by the Institutional Review Board (IRB) of Seoul National University Hospital. Peripheral blood was drawn from healthy controls (HC) after obtaining written consent from study participants, and all experiments were performed according to approved guidelines. Peripheral blood mononuclear cells (PBMCs) were isolated from peripheral blood using density gradient centrifugation (Biocoll separation solution; BIOCHROM Inc., Cambridge, UK). Total CD4^+ T cells, naive T cells and memory CD4^+ T-cells were isolated in a negative selection manner from CD14^+ monocyte depleted PBMCs using the MojoSort™ Human Total CD4^+ T-Cells, CD4^+ naive T-cells and CD4^+ memory T-cell isolation kit (BioLegend, San Diego, Calif.). Purified T cells were cultured in RPMI 1640 medium (hereinafter, “complete RPMI 1640”) supplemented with 10% fetal bovine serum (FBS), 1% penicillin/streptomycin, and 1% L-glutamine. Cells were stimulated with anti-CD3/CD28-coated microbeads (1:10 ratio, Dynabeads T-Activator CD3/CD28, Thermo Fisher Scientific, Waltham, MA) in the presence of designated chemical inhibitors or reagents including 2-amino-2-norbornanecarboxylic acid (BCH), JPH203, acetate, MG132, VH298, cobalt chloride (CoCl2), cycloheximid (CHX) (all provided by Sigma-Aldrich, St. Louis, MO), BCAT1 inhibitor 2 (Bi2: provided by Cayman Chemical, Ann Arbor, MI), 3-hydroxy-3-methylbutyric acid (HMB; provided by Thermo Fisher Scientific, Waltham, MA), and L-β-homoleucine (LβhL; provided by Santa Cruz Biotechnology, Heidelberg, Germany). In some experiments, a customized medium depleted of five essential amino acids (leucine, valine, isoleucine, phenylalanine, methionine) was used (Welgene, Gyeongsan, South Korea). All amino acids used (L-leucine, L-valine, L-isoleucine, L-phenylalanine, L-methionine) were purchased from Sigma-Aldrich.
IL-17A and IFN-γ amounts in culture supernatants were quantified using commercially available human ELISA kits (IL-17A ELISA kit by eBioscience and human IFN-γ ELISA MAX Deluxe by BioLegend) according to the manufacturer's instructions. Light density was measured using an Infinite M200 instrument (Tecan, Männedorf, Switzerland).

[4] = test system: human CD4+ memory T cells; experiment: Cholesterol analysis in cell lysates; type: cell-based; settings: Bi2 10 μM plus HMB 0.4 mM
Description: Total cholesterol amount in cultured cells was determined using a fluorometric Amplex™ Red Cholesterol Assay Kit (Thermo Fisher Scientific) according to the manufacturer's instructions.

HIF-1α [5] = experiment: RT-qPCR of HIF-1α and HIF-1α target genes in CD4+ memory T cells; type: cell-based, human; settings: HMB 0.4 mM
Description: Total RNA was prepared using TRIzol reagent (Life Technologies, Grand Island, NY), followed by cDNA synthesis (Promega, Madison, WI), followed by real-time quantitative RT-PCR with a CFX system (Bio-Rad, Hercules, CA) using SensiFAST SYBR® Lo-ROX (Bioline, London. UK). Gene expression levels were normalized for […] expression using the comparative CT method (ΔΔCT).

mTORC1 = experiment: Phospho-p70-S6K immunoblot (mTORC1 activity) in CD4+ memory T cells; type: cell-based, human; settings: HMB 0.4 mM, TCR stimulation 1 hour
Description: as §1

[6] = oral administration, healthy adults; cited from earlier work
[7] = test system: human CD4+ naive and memory T cells; experiment: CFSE dilution proliferation assay; type: cell-based; settings: anti-CD3/CD28 microbeads; Bi2 10 μM, JPH203 10 μM, LβhL 400 mg/L
Description: To analyze T cell proliferative capacity, purified isolated human CD4+ T cells were labeled with 1 μM carboxyfluorescein succinimidyl ester (CFSE; Invitrogen, Waltham, MA, USA) and then stimulated with anti-CD3/CD28 antibody coated microbeads for 4 days at 37° C. Cells were stained with 7AAD (BD Biosciences) for 10 minutes to distinguish dead cells and the extent of CFSE dilution in 7AAD-cells was measured by BD LSRFortessa to analyze proliferative capacity. Antibodies listed in Table 2 and previously known BD LSRFortessa cell analyzers were used.

[8] = test system: TCR-stimulated human CD4+ naive T cells; experiment: Cytokine ELISA of culture supernatants, CD4+ naive T cells; type: cell-based; settings: TCR stimulation 3 days
EAE mice = experiment: Experimental autoimmune encephalomyelitis (EAE) model; type: in vivo, mouse
[9] = Bi2 10 μM plus acetate, HMB or VH298, 3 days
[10] = Bi2 10 mg/kg or LβhL 1 g/kg i.p.

Which 3H-leucine uptake [1] does the source give for `NC1(C(=O)O)CC2CCC1C2` (centres unmarked) [BCH, 2-amino-2-norbornanecarboxylic acid] here?
Its 3H-leucine uptake is “greatly reduced”.

For `[Cl][Co][Cl]` [CoCl2, cobalt chloride], which “HIF-1α expression reduced by Bi2 (effect of added substance)” value (“HIF-1α expression reduced by Bi2” below) (HIF-1α [2]) is on record?
The value was “none of these inhibitors affected”.

What about the HIF-1α protein expression (HIF-1α [2]) of the same compound?
Its HIF-1α protein expression is “accumulation of HIF-1α”.

Which “IL-17A production in Bi2-treated CD4+ memory T cells (effect of added substance)” value (shortened to “IL-17A production … (effect of added substance)”) [3, 9] does the source give for `CC(C)(O)CC(=O)O` [HMB, 3-hydroxy-3-methylbutyric acid] here?
Its value is “partially reversed; also recorded: resolved”.

And the “IFN-γ production by CD4+ memory T cells” value [3]?
The value was “not affected; also recorded: did not affect”.

And the “cholesterol in Bi2-treated cells (effect of HMB supplementation)” value [4]?
The value was “inhibited; also recorded: decreased”.

And the HIF-1α degradation rate (HIF-1α [2]; 24 h Bi2 pretreatment, cycloheximide chase, with or without HMB)?
The HIF-1α degradation rate was “did not affect”.

And the “HIF-1α expression reduced by Bi2” value (HIF-1α [2])?
The value was “abrogates this attenuation; also recorded: reversed; also recorded: increased”.

And the “Bi2-reduced HIF-1α mRNA (effect of HMB supplementation)” value (HIF-1α [5])?
The value was “rapidly abolished”.

And the “Bi2-reduced SCL2A1, LDHA and PGK1 mRNA (effect of HMB supplementation)” value (HIF-1α [5]; 72 hours of TCR stimulation)?
The value was “eliminated”.

What about the “inhibition of mTORC1 activity by Bi2 (effect of HMB supplementation)” value (mTORC1) of the same compound?
The value was “time dependently counteracted”.

And the plasma half-life [6]?
Its plasma half-life is “about 2.5 hours”.

And the plasma level achievable [6]?
The plasma level achievable was 400 µM.

And the “time to peak plasma level” value [6]?
The value was 60 to 120 min.

For `Nc1cc(COc2c(Cl)cc(C[C@H](N)C(=O)O)cc2Cl)c2oc(-c3ccccc3)nc2c1` [JPH203], which 3H-leucine uptake [1] is on record?
Its 3H-leucine uptake is “greatly reduced”.

What about the “proliferation (CFSE dilution)” value [7] of the same compound?
The value was “completely blocked”.

What about the “IFN-γ production by CD4+ memory T cells” value [3] of the same compound?
Its value is “decreased significantly”.

What about the “IL-17A production by CD4+ memory T cells” value [3] of the same compound?
Its value is “decreased significantly”.

What about the “IL-2 production by CD4+ naive T cells” value [8] of the same compound?
The value was “not affected”.

With `CC(C)C[C@H](N)CC(=O)O` [LβhL, L-β-homoleucine] as the compound, how does the 3H-leucine uptake [1] read?
Its 3H-leucine uptake is “competitively inhibited”.

And the “proliferation (CFSE dilution)” value [7]?
The value was “did not affect”.

And the “IL-17A production by CD4+ memory T cells” value [3]?
Its value is “preferentially reduced; also recorded: attenuates”.

What about the “CD4+ T-cells producing IL-17A in spinal cord infiltrates and draining LN” value (EAE mice; [10]) of the same compound?
The value was “significantly reduced”.

And the “HIF-1α expression in CD4+ T-cells of spinal cord (intracellular staining)” value (EAE mice; [10])?
The value was “decreased”.

What about the “cell infiltration in spinal cord” value (EAE mice; [10]) of the same compound?
Its value is “significantly lower”.

And the “nerve damage, spinal cord histology” value (EAE mice; [10])?
The value was “significantly lower”.

And the “EAE clinical score / severity” value (EAE mice; i.p. three times a week for 14 days, Bi2 10 mg/kg, LβhL 1 g/kg)?
Its value is “attenuated; also recorded: improves EAE induction”.

For `CC(C)C[C@@H](C=O)NC(=O)[C@H](CC(C)C)NC(=O)[C@H](CC(C)C)NC(=O)OCc1ccccc1` [MG132] (Cbz-Leu-Leu-Leu-aldehyde), which “HIF-1α expression reduced by Bi2” value (HIF-1α [2]) is on record?
The value was “none of these inhibitors affected”.

What about the HIF-1α protein expression (HIF-1α [2]) of the same compound?
Its HIF-1α protein expression is “accumulation of HIF-1α”.

Which “IL-17A production … (effect of added substance)” value [3] does the source give for `Cc1ncsc1-c1ccc(CNC(=O)[C@@H]2C[C@@H](O)CN2C(=O)[C@@H](NC(=O)C2(C#N)CC2)C(C)(C)C)cc1` [VH298] here?
The value was “restores; also recorded: fully restored”.

What about the “IFN-γ production by CD4+ memory T cells” value [3] of the same compound?
Its value is “did not affect”.

What about the “HIF-1α expression reduced by Bi2” value (HIF-1α [2]) of the same compound?
Its value is “none of these inhibitors affected”.

And the HIF-1α protein expression (HIF-1α [2])?
Its HIF-1α protein expression is “accumulation of HIF-1α”.

For `CC(=O)O` [acetate], which “IL-17A production … (effect of added substance)” value [3, 9] is on record?
The value was “dose-dependently reduced”.

What about the “IFN-γ production in Bi2-treated CD4+ memory T cells (effect of added substance)” value ([3]; Bi2 10 μM plus acetate, 3 days) of the same compound?
Its value is “upregulated”.

Source: patent US20260076937A1, “COMPOSITION FOR PREVENTING OR TREATING AUTOIMMUNE DISEASES COMPRISING A BCAT1 INHIBITOR” (Seoul National University R&DB Foundation, priority 2024, published 2026)
